Earlier results in patent publication US7815928B2, “Device for local administration of solid or semi-solid formulations and delayed-release formulations for proposal parenteral administration and preparation process” (Societe de Conseils de Recherches et d'Applications …, priority 1996, dated 2010).

System: smooth muscle cells
Settings: after endothelial damage

Substance: heparin
- proliferation of smooth muscle cells: inhibits the proliferation
